The source of these data is patent publication US8501446B2 (Vertex Pharmaceuticals Incorporated, priority 2004, dated 2013).

Holding throughout (format): biochemical
One assay deals with T1, ROCK I (AA 6-553) (Homo sapiens, UniProt Q13464).
T1 construct: ROCK I (AA 6-553)
As to the kind of experiment: ROCK inhibition assay, standard coupled enzyme system ("Enzyme"). The note with it: enzyme-linked assay. The gist of the method: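 ROCK I (AA 6-553) at 45 nM and 30 °C with 45 μM ATP and 200 μM peptide, in 100 mM HEPES pH 7.5, 10 mM MgCl2, 25 mM NaCl, 2 mM DTT, 1.5% DMSO. ADP output read by a PK/LDH coupled system: 2.5 mM PEP, 350 μM NADH, 30 μg/ml PK, 10 μg/ml LDH.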

Another assay concerns the target T2, JAK3 (Homo sapiens, UniProt P52333).
T2 sequence (P52333 1-1124): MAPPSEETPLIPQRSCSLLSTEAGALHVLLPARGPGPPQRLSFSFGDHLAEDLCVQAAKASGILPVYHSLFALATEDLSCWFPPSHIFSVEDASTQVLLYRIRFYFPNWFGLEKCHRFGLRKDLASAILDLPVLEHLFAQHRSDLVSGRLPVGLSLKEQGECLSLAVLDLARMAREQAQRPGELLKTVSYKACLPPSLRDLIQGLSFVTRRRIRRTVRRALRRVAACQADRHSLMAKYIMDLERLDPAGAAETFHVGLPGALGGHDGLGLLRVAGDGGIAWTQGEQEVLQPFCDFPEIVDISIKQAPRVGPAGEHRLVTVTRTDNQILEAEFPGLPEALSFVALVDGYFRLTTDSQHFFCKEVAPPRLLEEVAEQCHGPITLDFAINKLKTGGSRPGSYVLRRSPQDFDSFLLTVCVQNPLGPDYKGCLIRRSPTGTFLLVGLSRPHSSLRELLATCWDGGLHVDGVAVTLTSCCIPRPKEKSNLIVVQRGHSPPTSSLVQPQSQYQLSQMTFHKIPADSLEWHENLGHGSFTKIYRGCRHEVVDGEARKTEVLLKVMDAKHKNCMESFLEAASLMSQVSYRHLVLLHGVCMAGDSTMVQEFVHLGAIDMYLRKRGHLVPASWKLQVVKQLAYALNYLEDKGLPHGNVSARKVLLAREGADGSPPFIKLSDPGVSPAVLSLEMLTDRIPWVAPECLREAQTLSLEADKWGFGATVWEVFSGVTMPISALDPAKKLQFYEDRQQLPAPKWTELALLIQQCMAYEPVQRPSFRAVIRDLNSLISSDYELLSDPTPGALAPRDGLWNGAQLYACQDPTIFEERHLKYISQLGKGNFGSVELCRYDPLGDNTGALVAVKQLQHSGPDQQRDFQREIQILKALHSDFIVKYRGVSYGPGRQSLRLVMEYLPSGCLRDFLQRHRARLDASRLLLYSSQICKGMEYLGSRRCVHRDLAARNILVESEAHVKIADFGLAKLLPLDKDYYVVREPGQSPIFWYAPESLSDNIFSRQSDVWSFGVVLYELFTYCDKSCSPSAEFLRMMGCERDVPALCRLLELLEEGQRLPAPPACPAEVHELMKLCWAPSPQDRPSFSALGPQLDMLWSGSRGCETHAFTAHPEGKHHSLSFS
The assay can be described thus: JAK3 inhibition assay (standard radioactive enzyme assay). The note with it: average Ki if more than one value determined. On the procedure:
(§1) Compounds were screened for their ability to inhibit JAK3 using a standard radioactive enzyme assay. 1.5 μL/well of a DMSO stock containing serial dilutions of a compound of the present invention (concentrations ranging from 667 μM to 46 nM) was placed in a 96 well polycarbonate plate. 50 μL per well of kinase buffer (100 mM HEPES (pH 7.4), 10 mM MgCl2, 25 mM NaCl, 1 mM DTT, and 0.01% bovine serum albumin (BSA)) containing 2 μM poly(Glu)4Tyr and 10 μM ATP was also added to the plate. To initiate the reaction, 50 μL kinase buffer containing 2 nM JAK3 enzyme was added. Final ATP concentration was 5 μM [γ-^33P] ATP (200 μCi ^33P ATP/μmol ATP (Perkin Elmer, Cambridge, Mass.). After 20 minutes at room temperature (25° C.), the reaction was stopped by adding 50 μL 20% trichloroacetic acid (TCA)/0.4 mM ATP to each well. The entire content of each well was then transferred to a 96 well glass fiber filter plate using a TomTek Cell Harvester. After washing, 60 μL scintillation fluid was added and ^33P incorporation detected using a Perkin Elmer TopCount. After removing mean background values for all of the data points the data was fit using Prism software to obtain a Ki(app). Inhibition of JAK2 was measured as above except that final poly(Glu)4Tyr concentration was 15 μM and final ATP concentration was 12 μM.

Another assay has as its target JAK2 (Homo sapiens, UniProt O60674). The assay can be described thus: JAK2 inhibition assay (radioactive enzyme assay, as for JAK3). The note with it: average Ki if more than one value determined. On the procedure: as §1

T1 sequence (Q13464 6-553, species assumed): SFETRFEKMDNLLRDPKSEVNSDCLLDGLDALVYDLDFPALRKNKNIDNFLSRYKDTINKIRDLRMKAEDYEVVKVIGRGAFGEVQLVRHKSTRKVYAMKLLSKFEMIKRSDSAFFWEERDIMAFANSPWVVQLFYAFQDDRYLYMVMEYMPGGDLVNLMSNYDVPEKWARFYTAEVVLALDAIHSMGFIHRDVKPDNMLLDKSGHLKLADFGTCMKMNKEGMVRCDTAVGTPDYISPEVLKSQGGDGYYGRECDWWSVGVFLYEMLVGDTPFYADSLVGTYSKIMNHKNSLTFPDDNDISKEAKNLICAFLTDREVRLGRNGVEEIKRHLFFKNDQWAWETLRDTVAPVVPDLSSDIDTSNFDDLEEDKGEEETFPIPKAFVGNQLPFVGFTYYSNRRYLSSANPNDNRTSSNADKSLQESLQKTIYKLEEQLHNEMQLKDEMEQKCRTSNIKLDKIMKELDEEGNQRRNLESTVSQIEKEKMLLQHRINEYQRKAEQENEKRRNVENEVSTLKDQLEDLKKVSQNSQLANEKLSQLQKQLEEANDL
JAK2, sequence (O60674 whole entry, species assumed): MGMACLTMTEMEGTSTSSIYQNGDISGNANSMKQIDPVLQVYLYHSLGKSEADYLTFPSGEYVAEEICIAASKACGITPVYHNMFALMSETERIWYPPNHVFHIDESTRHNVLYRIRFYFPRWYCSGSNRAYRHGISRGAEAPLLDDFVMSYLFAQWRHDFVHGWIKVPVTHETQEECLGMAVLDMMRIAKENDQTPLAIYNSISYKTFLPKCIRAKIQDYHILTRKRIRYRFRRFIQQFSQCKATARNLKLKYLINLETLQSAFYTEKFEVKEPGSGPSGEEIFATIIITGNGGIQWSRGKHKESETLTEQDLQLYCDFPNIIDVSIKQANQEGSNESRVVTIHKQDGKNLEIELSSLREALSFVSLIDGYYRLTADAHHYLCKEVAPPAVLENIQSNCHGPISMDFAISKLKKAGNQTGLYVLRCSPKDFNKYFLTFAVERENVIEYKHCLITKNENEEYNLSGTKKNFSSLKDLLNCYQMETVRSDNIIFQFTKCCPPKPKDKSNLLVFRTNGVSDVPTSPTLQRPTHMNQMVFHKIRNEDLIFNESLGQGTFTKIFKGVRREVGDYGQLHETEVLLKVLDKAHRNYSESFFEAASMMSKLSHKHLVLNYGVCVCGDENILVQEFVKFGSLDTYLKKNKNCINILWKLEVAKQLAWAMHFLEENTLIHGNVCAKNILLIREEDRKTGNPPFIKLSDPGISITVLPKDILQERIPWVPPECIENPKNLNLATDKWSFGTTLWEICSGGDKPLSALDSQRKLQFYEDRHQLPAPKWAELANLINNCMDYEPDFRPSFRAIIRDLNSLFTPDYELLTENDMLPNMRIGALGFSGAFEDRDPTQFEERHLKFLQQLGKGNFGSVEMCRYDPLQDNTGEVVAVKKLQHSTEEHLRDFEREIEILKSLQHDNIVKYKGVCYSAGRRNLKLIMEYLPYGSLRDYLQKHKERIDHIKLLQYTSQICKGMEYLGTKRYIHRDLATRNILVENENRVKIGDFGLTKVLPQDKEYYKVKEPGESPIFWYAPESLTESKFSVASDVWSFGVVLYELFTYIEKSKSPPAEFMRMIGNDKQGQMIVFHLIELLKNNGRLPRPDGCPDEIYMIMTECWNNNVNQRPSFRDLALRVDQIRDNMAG

Broadly, the Ki is the equilibrium dissociation constant of an inhibitor or competing ligand from its target. On to `CC(C)(O)c1cccc(-c2c[nH]c3ncc(Cl)cc23)n1` [Compound 203], for which the figures for the Ki at ROCK I (AA 6-553), on JAK3 and on JAK2 were 0.5 to 5 µM, less than 0.5 µM and less than 0.5 µM, respectively.

Consider `CC(=O)N1[C@H](C)CN(c2cccc(-c3c[nH]c4ncc(C(=O)NCCN5CCOCC5)cc34)n2)C[C@@H]1C` [Compound 108], for which the Ki at ROCK I (AA 6-553) was 0.5 to 5 µM; on JAK3, less than 0.5 µM; at JAK2, less than 0.5 µM.

In the case of `CC(C)[C@H](CO)Nc1cccc(-c2c[nH]c3ncc(Cl)cc23)n1` [Compound 135], the Ki on ROCK I (AA 6-553), on JAK3 and on JAK2 was less than 0.5 µM each time.

For `CCCOC(=O)Nc1cccc(-c2c[nH]c3ncc(Cl)cc23)n1` [Compound 88], the Ki at ROCK I (AA 6-553) is 0.5 to 5 µM; at JAK3, less than 0.5 µM; on JAK2, less than 0.5 µM.

Turning to `CC(=O)N1[C@H](C)CN(c2cccc(-c3c[nH]c4ncc(OCCCN(C)C)cc34)n2)C[C@@H]1C` [Compound 194], the Ki at ROCK I (AA 6-553) was 0.5 to 5 µM; on JAK3, less than 0.5 µM; at JAK2, less than 0.5 µM.

For `CC(C)CC(=O)N1CCN(c2cccc(-c3c[nH]c4ncc(Cl)cc34)n2)CC1` [Compound 89], the figures for the Ki on ROCK I (AA 6-553), on JAK3 and at JAK2 were 0.5 to 5 µM, less than 0.5 µM and less than 0.5 µM, respectively.

Regarding `CC(=O)N1[C@H](C)CN(c2cccc(-c3c[nH]c4ncc(NC(=O)OC(C)C)cc34)n2)C[C@@H]1C` [Compound 65], the Ki on ROCK I (AA 6-553) is 0.5 to 5 µM; on JAK3, less than 0.5 µM; on JAK2 it was less than 0.5 µM.

As to `Clc1cnc2[nH]cc(-c3cccc(NC4CCc5ccccc54)n3)c2c1` (stereo not drawn) [Compound 133], the values for the Ki on ROCK I (AA 6-553), on JAK3 and on JAK2 were 0.5 to 5 µM, less than 0.5 µM and less than 0.5 µM, respectively.

Turning to `CCCOC(=O)Nc1cnc2[nH]cc(-c3cccc(N4C[C@@H](C)N(C(C)=O)[C@@H](C)C4)n3)c2c1` [Compound 62], the Ki at ROCK I (AA 6-553), at JAK3 and on JAK2 was less than 0.5 µM in each case.

As for `Clc1cnc2[nH]cc(-c3ccccn3)c2c1` [Compound 184], the Ki was 0.5 to 5 µM on ROCK I (AA 6-553), less than 0.5 µM on JAK3 and 0.5 to 5 µM at JAK2.

`CC(C)Oc1cccc(-c2c[nH]c3ncc(Cl)cc23)c1` [Compound 143]: the Ki at ROCK I (AA 6-553) was 0.5 to 5 µM; on JAK3 it was less than 0.5 µM; at JAK2, 0.5 to 5 µM.

For the compound `CN(C)c1cccc(-c2c[nH]c3ncc(Cl)cc23)c1` [Compound 144], the inhibition constant Ki on ROCK I (AA 6-553) is 0.5 to 5 µM; at JAK3, less than 0.5 µM; on JAK2, less than 0.5 µM.

As to `C[C@@H](Nc1cccc(-c2c[nH]c3ncc(Cl)cc23)n1)C1CCCCC1` [Compound 129], the Ki was 0.5 to 5 µM on ROCK I (AA 6-553), less than 0.5 µM on JAK3 and 0.5 to 5 µM on JAK2.

Consider `C=CC(=O)Nc1cnc2[nH]cc(-c3cccc(N4CCCN(C(C)=O)CC4)n3)c2c1` [Compound 139], for which the Ki was 0.5 to 5 µM at ROCK I (AA 6-553), less than 0.5 µM at JAK3 and less than 0.5 µM on JAK2.

As to `CC(C)[C@@H](CO)Nc1cccc(-c2c[nH]c3ncc(Cl)cc23)n1` [Compound 134], the Ki at ROCK I (AA 6-553) is 0.5 to 5 µM; on JAK3 it was less than 0.5 µM; on JAK2, less than 0.5 µM.

As to `NC(=O)c1ccc(-c2c[nH]c3ncc(Cl)cc23)nc1` [Compound 107], the values for the Ki on ROCK I (AA 6-553), at JAK3 and on JAK2 were 0.5 to 5 µM, less than 0.5 µM and less than 0.5 µM, respectively.

As for `CC(=O)N1[C@H](C)CN(c2cccc(-c3c[nH]c4ncc(Cl)cc34)c2)C[C@@H]1C` [Compound 146], the Ki was 0.5 to 5 µM on ROCK I (AA 6-553), less than 0.5 µM at JAK3 and less than 0.5 µM at JAK2.

Consider `COC(=O)N1CCCN(c2cccc(-c3c[nH]c4ncc(Cl)cc34)n2)CC1` [Compound 83], for which the Ki on ROCK I (AA 6-553) was 0.5 to 5 µM; at JAK3, less than 0.5 µM; on JAK2 it was less than 0.5 µM.

Turning to `Clc1cnc2[nH]cc(-c3cccc4cccnc34)c2c1` [Compound 202], the Ki at ROCK I (AA 6-553), at JAK3 and on JAK2 was 0.5 to 5 µM throughout.

As to `CC(=O)N1[C@H](C)CN(c2cccc(-c3c[nH]c4ncc(NC(=O)c5ccccc5Cl)cc34)n2)C[C@@H]1C` [Compound 173], the Ki on ROCK I (AA 6-553), on JAK3 and on JAK2 was less than 0.5 µM in each case.

As for `Clc1cnc2[nH]cc(-c3ccccc3)c2c1` [Compound 183], the Ki on ROCK I (AA 6-553) is 0.5 to 5 µM; at JAK3, less than 0.5 µM; on JAK2, less than 0.5 µM.

Turning to `CC(=O)N1CCCN(c2cc(C#N)cc(-c3c[nH]c4ncc(Cl)cc34)n2)CC1` [Compound 149], the Ki was 0.5 to 5 µM on ROCK I (AA 6-553), less than 0.5 µM at JAK3 and less than 0.5 µM on JAK2.

As to `COc1cnc2[nH]cc(-c3cccc(N4CCCN(C(C)=O)CC4)n3)c2c1` [Compound 112], the Ki at ROCK I (AA 6-553) is 0.5 to 5 µM; at JAK3 it was less than 0.5 µM; at JAK2, less than 0.5 µM.

For `CC(=O)N1[C@H](C)CN(c2cccc(-c3c[nH]c4ncc(C(=O)N5CCOCC5)cc34)n2)C[C@@H]1C` [Compound 51], the Ki at ROCK I (AA 6-553), at JAK3 and at JAK2 was 0.5 to 5 µM throughout.

As to `Clc1cnc2[nH]cc(-c3ccc4ccccc4n3)c2c1` [Compound 195], the Ki at ROCK I (AA 6-553) is 0.5 to 5 µM; on JAK3, less than 0.5 µM; at JAK2, 0.5 to 5 µM.

As to `CC(=O)Nc1cc(-c2c[nH]c3ncc(Cl)cc23)nc(N2C[C@@H](C)N(C(C)=O)[C@@H](C)C2)c1` [Compound 160], the inhibitory constant (Ki) on ROCK I (AA 6-553) was 0.5 to 5 µM; at JAK3, less than 0.5 µM; on JAK2, less than 0.5 µM.

For `Cc1cc(-c2c[nH]c3ncc(Cl)cc23)nc2ccccc12` [Compound 197], the Ki at ROCK I (AA 6-553) was 0.5 to 5 µM; on JAK3, less than 0.5 µM; at JAK2 it was 0.5 to 5 µM.

As for `CC(=O)N1[C@H](C)CN(c2cccc(-c3c[nH]c4ncc(C(=O)NCCCN5CCN(C)CC5)cc34)n2)C[C@@H]1C` [Compound 109], the Ki at ROCK I (AA 6-553) was 0.5 to 5 µM; on JAK3 it was less than 0.5 µM; on JAK2 it was less than 0.5 µM.

Take `CCOC(=O)c1cnc2[nH]cc(-c3cccc(N4C[C@@H](C)N(C(C)=O)[C@@H](C)C4)n3)c2c1` [Compound 73]: the Ki at ROCK I (AA 6-553), at JAK3 and at JAK2 was less than 0.5 µM in each case.

In the case of `Cc1cc(C(F)(F)F)cc(-c2c[nH]c3ncc(Cl)cc23)n1` [Compound 196], the Ki on ROCK I (AA 6-553) is 0.5 to 5 µM; on JAK3, 0.5 to 5 µM; at JAK2, more than 5 µM.
